Measurements as given in BindingDB's records for doi:10.1021/acs.jmedchem.9b01227 (Johann Wolfgang Goethe-University, 2019).

Molecular target: Mitogen-activated protein kinase kinase kinase 20 (ZAK) (Homo sapiens) (UniProt Q9NYL2)
Assay: Inhibition of ZAK (unknown origin) expressed in human HEK293 cells incubated for 2 hrs followed by NanoBRET NanoGlo Substrate addition by NanoBRET assay

Mitogen-activated protein kinase kinase kinase 20 (ZAK) (Homo sapiens), sequence (Q9NYL2 whole entry, looked up): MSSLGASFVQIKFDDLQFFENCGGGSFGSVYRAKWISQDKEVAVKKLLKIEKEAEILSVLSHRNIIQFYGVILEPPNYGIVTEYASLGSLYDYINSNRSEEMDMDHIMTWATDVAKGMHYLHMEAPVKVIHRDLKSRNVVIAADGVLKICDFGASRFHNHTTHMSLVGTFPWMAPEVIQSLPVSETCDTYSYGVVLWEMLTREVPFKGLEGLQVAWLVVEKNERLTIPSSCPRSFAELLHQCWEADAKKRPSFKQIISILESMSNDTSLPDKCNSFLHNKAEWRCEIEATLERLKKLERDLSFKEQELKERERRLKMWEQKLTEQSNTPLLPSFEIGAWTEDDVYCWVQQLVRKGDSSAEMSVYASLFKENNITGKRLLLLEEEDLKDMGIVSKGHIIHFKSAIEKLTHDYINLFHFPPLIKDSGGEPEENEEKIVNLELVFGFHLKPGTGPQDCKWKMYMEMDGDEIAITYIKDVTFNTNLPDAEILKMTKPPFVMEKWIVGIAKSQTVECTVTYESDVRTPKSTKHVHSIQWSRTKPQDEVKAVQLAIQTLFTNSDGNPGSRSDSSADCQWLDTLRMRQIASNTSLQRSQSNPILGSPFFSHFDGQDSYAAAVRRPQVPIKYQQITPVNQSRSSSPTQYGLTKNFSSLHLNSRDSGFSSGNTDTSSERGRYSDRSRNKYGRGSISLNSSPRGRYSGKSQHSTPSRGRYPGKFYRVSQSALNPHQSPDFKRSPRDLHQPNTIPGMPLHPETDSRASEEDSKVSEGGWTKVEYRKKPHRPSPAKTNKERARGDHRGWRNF

Row | SMILES | IC50
1 | Nc1c(C(=O)NCc2ccc(C(=O)NCCCC3CCCCC3)cc2)cnn1-c1ccccc1 | 0.91 µM
2 | O=C(NCCCC1CCCCC1)c1ccc(CNC(=O)c2cnn(-c3ccccc3)c2C(F)(F)F)cc1 | 5.8 µM
